Our source for the IC50 values is ChEMBL document CHEMBL5634101, “Discovery of NLRP3 inhibitors using machine learning: Identification of a hit compound to treat NLRP3 activation-driven diseases” (Eur J Med Chem, 2023).

The target of the test is NACHT, LRR and PYD domains-containing protein 3 (Homo sapiens, UniProt Q96P20). In words: Inhibition of NLRP3 inflammasome activation in PMA-differentiated human THP-1 cells assessed as reduction in IL-1beta secretion pre-stimulated with PMA for 24 hrs followed by compound addition and measured after 30 mins by ELISA. In kind it is cell-based.
Sequence of NACHT, LRR and PYD domains-containing protein 3 (Q96P20 whole entry, the tested form may be a part): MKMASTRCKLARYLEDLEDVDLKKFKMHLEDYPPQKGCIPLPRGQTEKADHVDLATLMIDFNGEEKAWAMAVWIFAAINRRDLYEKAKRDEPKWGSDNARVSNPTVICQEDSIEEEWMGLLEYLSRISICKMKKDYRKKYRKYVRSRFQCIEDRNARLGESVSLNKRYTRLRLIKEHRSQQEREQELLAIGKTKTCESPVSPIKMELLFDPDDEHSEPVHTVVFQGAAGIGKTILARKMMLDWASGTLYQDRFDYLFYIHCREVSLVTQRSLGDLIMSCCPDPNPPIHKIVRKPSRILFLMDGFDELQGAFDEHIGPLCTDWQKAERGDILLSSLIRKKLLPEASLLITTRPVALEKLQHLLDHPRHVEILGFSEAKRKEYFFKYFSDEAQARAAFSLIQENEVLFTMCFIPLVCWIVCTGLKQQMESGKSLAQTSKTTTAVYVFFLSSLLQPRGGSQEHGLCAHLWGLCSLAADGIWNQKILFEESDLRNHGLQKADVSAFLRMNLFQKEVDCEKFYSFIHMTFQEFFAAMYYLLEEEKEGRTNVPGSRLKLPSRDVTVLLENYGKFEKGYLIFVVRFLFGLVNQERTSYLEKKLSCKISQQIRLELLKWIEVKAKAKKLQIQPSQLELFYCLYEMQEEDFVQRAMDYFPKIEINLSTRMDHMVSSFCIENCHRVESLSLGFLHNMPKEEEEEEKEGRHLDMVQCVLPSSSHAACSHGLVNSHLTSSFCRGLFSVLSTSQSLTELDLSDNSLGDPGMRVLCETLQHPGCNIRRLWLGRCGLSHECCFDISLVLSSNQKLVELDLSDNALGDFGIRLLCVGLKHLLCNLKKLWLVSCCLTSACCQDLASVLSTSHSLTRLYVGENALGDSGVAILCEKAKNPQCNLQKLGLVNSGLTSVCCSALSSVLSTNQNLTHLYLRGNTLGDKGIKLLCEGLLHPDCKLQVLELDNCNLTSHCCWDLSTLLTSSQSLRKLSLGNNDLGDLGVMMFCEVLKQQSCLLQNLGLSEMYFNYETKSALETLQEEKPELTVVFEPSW

As a reminder, the IC50 is the concentration needed to halve the response being measured. For the compound `O=C(O)CCCCCN1C(=O)/C(=C/c2c[nH]c3ccccc23)SC1=S`, the IC50 amounted to 13.9 µM.
